PubChem BioAssay AID1963840 (Molecular Pharmacology Branch, DTP, NCI, 2024)
pIC50: −log10 of the molar value.

Tested on: 695427-040-R-J1-PDC complex spheroid viability
Assay: Anticancer human tumor 695427-040-R-J1-PDC patient-derived colon adenocarcinoma cell line growth inhibition [POLQ]
Settings: for pIC50: curve of first compound; for viability, T/C: stronger effect = lower value
Method in brief: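 PDC + HUVEC + MSC complex spheroids; POLQ inhibitors ± partner drugs; top conc. at/near clinical Cmax, else 10 microM (SN-38 1 microM), half-log dilutions; 37 degrees C, 5% CO2.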

[1] = second compound 0.0316 µM, first compound 0.0316 µM
[2] = second compound 0.0316 µM, first compound 0.1 µM
[3] = second compound 0.0316 µM, first compound 0.316 µM
[4] = second compound 0.0316 µM, first compound 1 µM
[5] = second compound 0.0316 µM, first compound 3.16 µM
[6] = second compound 0.0316 µM, first compound 10 µM
[7] = second compound 0.1 µM, first compound 0.0316 µM
[8] = second compound 0.1 µM, first compound 0.1 µM
[9] = second compound 0.1 µM, first compound 0.316 µM
[10] = second compound 0.1 µM, first compound 1 µM
[11] = second compound 0.1 µM, first compound 3.16 µM
[12] = second compound 0.1 µM, first compound 10 µM
[13] = second compound 0.316 µM, first compound 0.0316 µM
[14] = second compound 0.316 µM, first compound 0.1 µM
[15] = second compound 0.316 µM, first compound 0.316 µM
[16] = second compound 0.316 µM, first compound 1 µM
[17] = second compound 0.316 µM, first compound 3.16 µM
[18] = second compound 0.316 µM, first compound 10 µM
[19] = second compound 1 µM, first compound 0.0316 µM
[20] = second compound 1 µM, first compound 0.1 µM
[21] = second compound 1 µM, first compound 0.316 µM
[22] = second compound 1 µM, first compound 1 µM
[23] = second compound 1 µM, first compound 3.16 µM
[24] = second compound 1 µM, first compound 10 µM
[25] = second compound 3.16 µM, first compound 0.0316 µM
[26] = second compound 3.16 µM, first compound 0.1 µM
[27] = second compound 3.16 µM, first compound 0.316 µM
[28] = second compound 3.16 µM, first compound 1 µM
[29] = second compound 3.16 µM, first compound 3.16 µM
[30] = second compound 3.16 µM, first compound 10 µM
[31] = second compound 10 µM, first compound 0.0316 µM
[32] = second compound 10 µM, first compound 0.1 µM
[33] = second compound 10 µM, first compound 0.316 µM
[34] = second compound 10 µM, first compound 1 µM
[35] = second compound 10 µM, first compound 3.16 µM
[36] = second compound 10 µM, first compound 10 µM
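Also: spheroids exposed to compounds for seven days.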
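For viability, T/C in this document: 100% = DMSO vehicle control viability.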

For `CCc1cc2c(N3CCc4c(cc(Cn5ccnc5)cc4-c4cn(C)nc4C(F)(F)F)C3=O)ccnc2c(OC)n1` + COC1C(OC(N)=O)C(O)C(Oc2ccc3c(O)c(NC(=O)c4ccc(O)c(CC=C(C)C)c4)c(=O)oc3c2C)OC1(C)C, the pIC50 (second compound 0.0316 µM) was less than 5.00, the pIC50 (second compound 0.1 µM) was less than 5.00 and the pIC50 (second compound 0.316 µM) was less than 5.00. It also gave a pIC50 (second compound 1 µM) of less than 5.00, a pIC50 (second compound 3.16 µM) of less than 5.00 and a pIC50 (second compound 10 µM) of less than 5.00. The viability, T/C [1] was 110%, the viability, T/C [2] was 111% and the viability, T/C [3] was 106%. It also gave a viability, T/C [4] of 116%, a viability, T/C [5] of 114% and a viability, T/C [6] of 97.2%. It also gave a viability, T/C [7] of 111%, a viability, T/C [8] of 103% and a viability, T/C [9] of 115%. For the same compound, the viability, T/C [10] was 109%, the viability, T/C [11] was 116% and the viability, T/C [12] was 105%. For the same compound, the viability, T/C [13] was 111%, the viability, T/C [14] was 116% and the viability, T/C [15] was 108%. The viability, T/C [16] was 101%, the viability, T/C [17] was 109% and the viability, T/C [18] was 95.6%. It also gave a viability, T/C [19] of 116%, a viability, T/C [20] of 112% and a viability, T/C [21] of 109%. For the same compound, the viability, T/C [22] was 98.3%, the viability, T/C [23] was 111% and the viability, T/C [24] was 101%. The viability, T/C [25] was 103%, the viability, T/C [26] was 104% and the viability, T/C [27] was 107%. For the same compound, the viability, T/C [28] was 105%, the viability, T/C [29] was 117% and the viability, T/C [30] was 101%. It also gave a viability, T/C [31] of 111%, a viability, T/C [32] of 92.7% and a viability, T/C [33] of 108%. For the same compound, the viability, T/C [34] was 106%, the viability, T/C [35] was 113% and the viability, T/C [36] was 96.3%.

Compound `COc1cc2cc(C(=O)CCC(=O)O)sc2cc1OC` + COC1C(OC(N)=O)C(O)C(Oc2ccc3c(O)c(NC(=O)c4ccc(O)c(CC=C(C)C)c4)c(=O)oc3c2C)OC1(C)C has a pIC50 (second compound 0.0316 µM) of less than 5.00, a pIC50 (second compound 0.1 µM) of less than 5.00 and a pIC50 (second compound 0.316 µM) of less than 5.00. For the same compound, the pIC50 (second compound 1 µM) was less than 5.00, the pIC50 (second compound 3.16 µM) was less than 5.00 and the pIC50 (second compound 10 µM) was less than 5.00. It also gave a viability, T/C [1] of 98.3%, a viability, T/C [2] of 86.9% and a viability, T/C [3] of 101%. For the same compound, the viability, T/C [4] was 104%, the viability, T/C [5] was 112% and the viability, T/C [6] was 107%. The viability, T/C [7] was 117%, the viability, T/C [8] was 103% and the viability, T/C [9] was 106%. The viability, T/C [10] was 99.2%, the viability, T/C [11] was 109% and the viability, T/C [12] was 103%. The viability, T/C [13] was 108%, the viability, T/C [14] was 105% and the viability, T/C [15] was 99.8%. It also gave a viability, T/C [16] of 107%, a viability, T/C [17] of 101% and a viability, T/C [18] of 99.3%. It also gave a viability, T/C [19] of 104%, a viability, T/C [20] of 109% and a viability, T/C [21] of 100%. For the same compound, the viability, T/C [22] was 106%, the viability, T/C [23] was 101% and the viability, T/C [24] was 103%. It also gave a viability, T/C [25] of 102%, a viability, T/C [26] of 94.2% and a viability, T/C [27] of 97.4%. It also gave a viability, T/C [28] of 106%, a viability, T/C [29] of 103% and a viability, T/C [30] of 93.8%. For the same compound, the viability, T/C [31] was 102%, the viability, T/C [32] was 102% and the viability, T/C [33] was 114%. It also gave a viability, T/C [34] of 120%, a viability, T/C [35] of 104% and a viability, T/C [36] of 109%.

`Cn1ncnc1[C@H]1c2n[nH]c(=O)c3cc(F)cc(c23)N[C@@H]1c1ccc(F)cc1` + COC1C(OC(N)=O)C(O)C(Oc2ccc3c(O)c(NC(=O)c4ccc(O)c(CC=C(C)C)c4)c(=O)oc3c2C)OC1(C)C showed a pIC50 (second compound 0.0316 µM) of less than 7.00, a pIC50 (second compound 0.1 µM) of less than 7.00 and a pIC50 (second compound 0.316 µM) of less than 7.00. For the same compound, the pIC50 (second compound 1 µM) was less than 7.00, the pIC50 (second compound 3.16 µM) was less than 7.00 and the pIC50 (second compound 10 µM) was less than 7.00. For the same compound, the viability, T/C (second compound 0.0316 µM, first compound 0.000316 µM) was 92%, the viability, T/C (second compound 0.0316 µM, first compound 0.001 µM) was 96.6% and the viability, T/C (second compound 0.0316 µM, first compound 0.00316 µM) was 93.5%. It also gave a viability, T/C (second compound 0.0316 µM, first compound 0.01 µM) of 105%, a viability, T/C [1] of 106% and a viability, T/C [2] of 84.1%. The viability, T/C (second compound 0.1 µM, first compound 0.000316 µM) was 99.4%, the viability, T/C (second compound 0.1 µM, first compound 0.001 µM) was 93.3% and the viability, T/C (second compound 0.1 µM, first compound 0.00316 µM) was 107%. For the same compound, the viability, T/C (second compound 0.1 µM, first compound 0.01 µM) was 101%, the viability, T/C [7] was 98.4% and the viability, T/C [8] was 83.8%. For the same compound, the viability, T/C (second compound 0.316 µM, first compound 0.000316 µM) was 106%, the viability, T/C (second compound 0.316 µM, first compound 0.001 µM) was 101% and the viability, T/C (second compound 0.316 µM, first compound 0.00316 µM) was 98.4%. For the same compound, the viability, T/C (second compound 0.316 µM, first compound 0.01 µM) was 106%, the viability, T/C [13] was 103% and the viability, T/C [14] was 92.1%. It also gave a viability, T/C (second compound 1 µM, first compound 0.000316 µM) of 103%, a viability, T/C (second compound 1 µM, first compound 0.001 µM) of 101% and a viability, T/C (second compound 1 µM, first compound 0.00316 µM) of 96.3%. It also gave a viability, T/C (second compound 1 µM, first compound 0.01 µM) of 95.1%, a viability, T/C [19] of 93.9% and a viability, T/C [20] of 91%. It also gave a viability, T/C (second compound 3.16 µM, first compound 0.000316 µM) of 96.6%, a viability, T/C (second compound 3.16 µM, first compound 0.001 µM) of 90.9% and a viability, T/C (second compound 3.16 µM, first compound 0.00316 µM) of 90.9%. It also gave a viability, T/C (second compound 3.16 µM, first compound 0.01 µM) of 98.3%, a viability, T/C [25] of 105% and a viability, T/C [26] of 94.6%. For the same compound, the viability, T/C (second compound 10 µM, first compound 0.000316 µM) was 103%, the viability, T/C (second compound 10 µM, first compound 0.001 µM) was 99.6% and the viability, T/C (second compound 10 µM, first compound 0.00316 µM) was 99%. For the same compound, the viability, T/C (second compound 10 µM, first compound 0.01 µM) was 106%, the viability, T/C [31] was 113% and the viability, T/C [32] was 101%.
